Values joined by “and” are separate entries in the source; they are usually repeats but may differ in a detail not shown here. Equal entries are not always repeated. Structures can show the parent of a compound that is named as a salt. Where two headings read alike, the source gives them in different places.
How the values were obtained:
[1] = tested on: 0.4 mm slices of rat hippocampus; assay type: cell-based
[2] = target: T1, hERG (Homo sapiens, UniProt Q12809); assay: Inhibition of binding of [3H]astemizole to HEK-293 cells expressing hERG; settings: for inhibition at 10 µM: human, HEK-293 cells expressing human recombinant hERG, probe [3H]astemizole
T1 construct: host or cells: HEK-293
Method: Another common side-effect marker is inhibition of human Ether-a-go-go Related Gene potassium (hERG) potassium channel (Inward rectifying, IKr) activity which can be fatal due to heart failure brought about by development of long QT syndrome. A useful preliminary screen to assess potential to affect this channel is assessed by measurement of inhibition of the binding of [3H]astemizole to cell membranes expressing hERG. Selected compounds are tested for this activity by measurement of inhibition @ 10 μM.
Compounds were sent to MDS Pharma for measurement of their inhibition @ 10 μM concentration of the binding of [^3H]astemizole to HEK-293 cells expressing human recombinant hERG.

[3] = tested on: L-Type Calcium Channels; assay: L-type calcium channel binding ([3H]nitrendipine, rat cerebral cortex membranes)
Source text: Compounds were sent to MDS Pharma for measurement of their inhibition @ […] of the binding of [^3H]nitrendipine to rat cerebral cortex membranes.

[4] = Microsome stability; assay type: in vitro ADME, human; settings: 1 μM
Method: Compounds were sent to BioFocus for measurement of their stability @ 1 μM concentration following incubation with rat liver microsomes for 40 minutes @ 37°.

[5] = tested on: Sodium Channel, Site 2; assay: Inhibition of binding of [3H]BTX-B to Wistar rat brain
[6] = tested on: maximal electroshock-induced tonic convulsions; assay: Rat MES (Maximal ElectroShock) anticonvulsant test; assay type: in vivo; settings: for MES Results (% protection): n = 5 rats; for ED50: Rattus norvegicus, po
Method: Male Wistar rats provided by BioLasco Taiwan (under Charles River Laboratories Technology Licensee) were used. Space allocation for 5 animals was 45×23×21 cm. Animals were housed in animal cages and maintained in a controlled temperature (21-23° C.) and humidity (50%-70%) environment with 12 hours light/dark cycles for at least three days in MDS Pharma Services—Taiwan Laboratory prior to use. Free access to standard lab chow for rats [MF-18 (Oriental Yeast Co., Ltd. Japan)] and reverse osmosis (RO) water were granted ad libitum. All aspects of this work including housing, experimentation and disposal of animals were performed in general accordance with the Guide for the Care and Use of Laboratory Animals (National Academy Press, Washington, D.C., 1996).
Test compounds were suspended/dissolved in 2% Tween 80 and dosed orally at a dose volume of 10 ml/Kg to groups of 5 Wistar male rats weighing 180+/−20 g, one hour before maximal electroshock (MES, 60 Hz sine wave, 150 mA, 200 msec duration) was applied through corneal electrodes. Appearance of maximal electroshock-induced tonic convulsions (MES) was determined for each animal. 50 percent or more (50%) inhibition of tonic convulsions by test substance indicates significant anticonvulsant activity.
Test substances (CEN-216, CEN-145, CEN-148, CEN-152 and CEN-154) at 14, 42 or 100 mg/kg were administered orally to groups of 5 Wistar derived male rats weighing 180±20 g.
In rat model of epilepsy (Maximal ElectroShock—MES), in which compounds were dosed orally one hour prior to ‘shock’, the ED50 (effective dose to protect 50% of rats from limb extension etc.) for CEN-216 is approx 9 mg/kg free base.

[7] = tested on: maximal electroshock (MES); assay: Mouse MES model of epilepsy; assay type: in vivo; settings: 72 mg/Kg (free base) po
Method: In mouse model of epilepsy (MES), compounds CEN-079 and CEN-216 were dosed orally (100 and 72 mg/kg free base respectively) @ 1 h, 6 h and 24 h prior to ‘shock).

[8] = tested on: sodium channel; assay type: biochemical, rat; settings: read-out: [14C]guanidine flux Mean IC50
Source text: The screening strategy is designed to select compounds with appropriate sodium channel blocking activity and low side effect liability. To this end all compounds are processed through the primary sodium channel assay (veratrine-evoked uptake of [^14C]guanidine into rat forebrain synaptosomes) and IC50 values computed from generated concentration-effect curves.
Following killing of animals by stunning and decapitation, the forebrain (whole brain less cerebellum/medulla) was rapidly dissected and transferred to a weighed tube containing ice-cold 0.25M sucrose.
Synaptosomes (heavy and light mitochondrial fraction containing synaptosomes) were prepared by transferring the forebrain (of known wet weight) to a glass Potter vessel to which 9 volumes ice-cold 0.25M sucrose had been added and homogenising, using a teflon pestle, by 8 ‘up and down strokes’ of a Braun Potter S motor driven homogeniser set to 900 rpm. The resulting homogenate was centrifuged at 1036×g at 4° for 10 min and the supernatant collected. The remaining pellet was resuspended, as above, in fresh ice-cold 0.25M sucrose and the centrifugation step repeated. The supernatant fractions were pooled and centrifuged at 40,000×g (average) at 4° for 15 min and the resulting pellet resuspended in the appropriate assay buffer at a concentration of 20-25 mg wet weight per ml appropriate assay buffer. […]

[9] = extrapolated, read-out: hERG ([3H]astemizole) (extrapolated IC50 μM)
[10] = hERG IC50 (μM) (extrapolated from 10 μM inh'n), extrapolated from 10 μM inhibition, slope assumed 1.0
[11] = extrapolated, read-out: Nach ([3H]BTX-B) (extrapolated IC50 μM)
[12] = read-out: [3H]BTX-B binding Extrapolated IC50
[13] = 1 h, read-out: Rat MES ED50 (very approx, from single 100 mg/kg dose), free base, one hour prior to shock

T1 sequence (Q12809 whole entry): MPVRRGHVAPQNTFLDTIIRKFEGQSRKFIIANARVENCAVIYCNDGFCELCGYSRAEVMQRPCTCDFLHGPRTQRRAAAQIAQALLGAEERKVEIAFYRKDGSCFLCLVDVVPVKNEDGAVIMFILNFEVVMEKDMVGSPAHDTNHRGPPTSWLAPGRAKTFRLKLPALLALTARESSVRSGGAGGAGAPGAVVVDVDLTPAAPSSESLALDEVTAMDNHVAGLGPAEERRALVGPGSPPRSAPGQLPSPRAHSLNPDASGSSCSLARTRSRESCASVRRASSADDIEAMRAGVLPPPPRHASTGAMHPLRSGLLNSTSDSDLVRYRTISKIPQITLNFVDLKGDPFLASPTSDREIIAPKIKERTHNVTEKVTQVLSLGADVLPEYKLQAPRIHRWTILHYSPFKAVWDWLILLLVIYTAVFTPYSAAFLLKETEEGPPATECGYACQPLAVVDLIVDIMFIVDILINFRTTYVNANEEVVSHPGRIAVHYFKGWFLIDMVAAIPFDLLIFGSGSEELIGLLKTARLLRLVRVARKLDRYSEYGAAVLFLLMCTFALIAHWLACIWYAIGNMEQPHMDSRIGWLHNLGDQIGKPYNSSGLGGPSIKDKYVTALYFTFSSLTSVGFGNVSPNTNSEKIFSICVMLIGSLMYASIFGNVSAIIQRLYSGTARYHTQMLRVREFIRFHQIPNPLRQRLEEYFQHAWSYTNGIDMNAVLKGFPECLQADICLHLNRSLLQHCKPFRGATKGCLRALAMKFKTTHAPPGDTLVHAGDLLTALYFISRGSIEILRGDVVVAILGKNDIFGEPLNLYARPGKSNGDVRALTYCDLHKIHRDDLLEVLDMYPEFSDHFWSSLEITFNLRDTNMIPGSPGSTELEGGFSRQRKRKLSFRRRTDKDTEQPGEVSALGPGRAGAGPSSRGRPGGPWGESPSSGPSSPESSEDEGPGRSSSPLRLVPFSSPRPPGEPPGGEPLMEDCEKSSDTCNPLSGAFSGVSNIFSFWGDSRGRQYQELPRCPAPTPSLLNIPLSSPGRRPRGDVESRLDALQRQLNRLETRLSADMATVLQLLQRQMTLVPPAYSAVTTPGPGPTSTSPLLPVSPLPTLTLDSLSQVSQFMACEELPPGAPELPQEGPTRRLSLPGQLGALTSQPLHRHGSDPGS

In the case of `NC1=N[C@H](O)[C@H]2[C@H]3O[C@]4(O)O[C@@H]([C@@H](O)[C@@]2(N1)[C@@H]4O)[C@]3(O)CO` [TTX, tetrodotoxin], the “% protection (v 1 μM TTX) (mean ± sem)” value [1] is reported as 100%.
For `N=c1nc(N)c(-c2cccc(Cl)c2Cl)nn1CC(Cl)(Cl)Cl` [CEN-216, 5(3)-Amino-6-(2,3-dichlorophenyl)-2,3(2,5)-dihydro-3(5)-imino-2-(2,2,2-trichloroethyl)-1,2,4-triazine trifluoromethanesulphonate], the IC50 [2, 9] was 50 µM, the IC50 [2, 10] was 73.3 µM and the inhibition at 10 µM [2] was 12%. For the same compound, the “L-type Ca2+ % inhibition @ 10 μM” value ([3]; 10 μM) was 27%, the IC50 ([3]; extrapolated, read-out: extrapolated IC50 in L-type Calcium (phenylalkylamine site) binding assay) was 27 µM and the IC50 ([3]; read-out: L-type Ca2+ IC50 (μM) (extrapolated from 10 μM inh'n), extrapolated from 10 μM inhibition, slope assumed 1.0) was 27 µM. For the same compound, the “Microsome stability (human) % metabolized (40 min incubation 37°)” value [4] was 0%, the “[3H]BTX-B binding % inhibition (@ 10 μM)” value [5] was 42% and the IC50 [5, 11] was 20 µM. The IC50 [5, 12] was 13.8 µM, the “MES Results (% protection)” value ([6]; 1 mg/kg po) was 0% and the “MES Results (% protection)” value ([6]; 3 mg/kg po) was 0%. The “Rat MES (anticonvulsant in vivo) % protection” value ([6]; 10 mg/Kg (free base) po) was 80%, the “MES Results (% protection)” value ([6]; 10 mg/kg po) was 80% and the “MES Results (% protection)” value ([6]; 30 mg/kg po) was 100%. For the same compound, the “MES Results (% protection)” value ([6]; 100 mg/kg po) was 100%, the ED50 ([6]; 1 h, free base, dosed orally one hour prior to shock, read-out: Rat MES ED50 (effective dose to protect 50% of rats)) was about 9 mg/kg and the ED50 ([6]; read-out: Rat MES ED50) was 9 mg/kg. The “duration of action following po dose in mouse” value [7] was “long duration of action”, the “Mouse MES % protection” value ([7]; 1 h prior to shock) was 100% and the “Mouse MES % protection” value ([7]; 6 h prior to shock) was 100%. For the same compound, the “Mouse MES % protection” value ([7]; 24 h prior to shock) was 100%.
In the case of `Nc1nnc(-c2cccc(Cl)c2Cl)c(N)n1` [CEN-1, 3,5-Diamino-6-(2,3-dichlorophenyl)-1,2,4-triazine, reference compound], the IC50 [8] is reported as 219 µM, the “Microsome stability (human) % metabolized (40 min incubation 37°)” value [4] is reported as 20% and the “MES Results (% protection)” value ([6]; 3 mg/kg po) is reported as 60%. For the same compound, the “MES Results (% protection)” value ([6]; 10 mg/kg po) was 100% and the “MES Results (% protection)” value ([6]; 25 mg/kg po) was 100%.
With `N=c1nc(N)c(-c2cccc(Cl)c2Cl)nn1CC(F)(F)C(F)(F)F` [CEN-217] the IC50 [2, 9] was 26 µM, the IC50 [2, 10] was 25.7 µM and the inhibition at 10 µM [2] was 28%. The “[3H]BTX-B binding % inhibition (@ 10 μM)” value [5] was 105%, the IC50 [5, 11] was under 0.5 µM and the IC50 [5, 12] was under 0.5 µM. The “Rat MES (anticonvulsant in vivo) % protection” value ([6]; 100 mg/Kg (free base) po) was 60% and 60 @ 100%, the “MES Results (% protection)” value ([6]; 100 mg/kg po) was 60% and the ED50 [6, 13] was about 80 mg/kg.
`N=c1nc(N)c(-c2cccc(Cl)c2Cl)nn1CC(F)(F)C(F)F` [CEN-218] showed an IC50 [2, 9] of 40 µM, an IC50 [2, 10] of 40 µM and an inhibition at 10 µM [2] of 20%. The “[3H]BTX-B binding % inhibition (@ 10 μM)” value [5] was 108%, the IC50 [5, 11] was under 0.5 µM and the IC50 [5, 12] was under 0.5 µM. For the same compound, the “Rat MES (anticonvulsant in vivo) % protection” value ([6]; 100 mg/Kg (free base) po) was 40 @ 100%, the “Rat MES (anticonvulsant in vivo) % protection” value ([6]; 100 mg/Kg (free base) po, listed as 218) was 40% and the “MES Results (% protection)” value ([6]; 100 mg/kg po) was 40%. The ED50 [6, 13] was about 120 mg/kg.
For `N=c1nc(N)c(-c2cc(Cl)cc(Cl)c2Cl)nn1CC(Cl)(Cl)Cl` [CEN-248], the “[3H]BTX-B binding % inhibition (@ 10 μM)” value [5] was 27%, the IC50 [5, 11] was 27 µM and the IC50 [5, 12] was 27 µM. For the same compound, the “Rat MES (anticonvulsant in vivo) % protection” value ([6]; 30 mg/Kg (free base) po) was 100% protection @ 30 and the “MES Results (% protection)” value ([6]; 30 mg/kg po) was 100%.
In the case of `O=C1NC(=O)C(c2ccccc2)(c2ccccc2)N1` [DiPhenylHydantoin, Diphenylhydantoin sodium salt, reference compound], the “% protection (v 1 μM TTX) (mean ± sem)” value [1] is reported as 48% and the “MES Results (% protection)” value ([6]; 100 mg/kg po) is reported as 80%.

From patent US9000155B2, “Cyclic triazo sodium channel blockers” (University of Greenwich, priority 2009, dated 2015)
